From patent US20080234384A1, “BIARYL AND BIHETEROARYL COMPOUNDS USEFUL IN TREATING IRON DISORDERS” (XENON PHARMACEUTICALS INC., priority 2007, published 2008)

How the values were obtained:
DMT1 = molecular target: T1, DMT1 (Homo sapiens, UniProt P49281); experiment: DMT1 Activity Assay (In Vitro Assay); format: cell-based; conditions: read-out: IC50 Activity Level
T1 sequence (P49281 1-568): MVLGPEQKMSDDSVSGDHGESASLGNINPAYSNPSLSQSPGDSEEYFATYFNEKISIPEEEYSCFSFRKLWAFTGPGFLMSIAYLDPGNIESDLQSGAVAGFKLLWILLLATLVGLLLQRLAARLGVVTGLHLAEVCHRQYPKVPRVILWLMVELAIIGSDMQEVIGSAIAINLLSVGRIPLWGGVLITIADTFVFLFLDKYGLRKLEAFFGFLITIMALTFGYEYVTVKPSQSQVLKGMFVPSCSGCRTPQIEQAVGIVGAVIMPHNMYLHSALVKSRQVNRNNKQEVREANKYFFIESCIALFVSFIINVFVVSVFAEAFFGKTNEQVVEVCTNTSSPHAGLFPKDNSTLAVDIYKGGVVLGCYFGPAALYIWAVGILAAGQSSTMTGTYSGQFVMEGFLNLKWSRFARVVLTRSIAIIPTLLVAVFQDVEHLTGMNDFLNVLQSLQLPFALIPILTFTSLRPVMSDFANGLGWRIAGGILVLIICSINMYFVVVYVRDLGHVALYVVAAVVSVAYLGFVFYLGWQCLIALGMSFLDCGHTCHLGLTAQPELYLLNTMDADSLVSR
In short: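 Cell-based Fe2+ uptake assay in DMT1-expressing cells (stable overexpressing lines, or endogenous in intestinal cells/tissue, K562 or […]), cells exposed to 55Fe or 59Fe or loaded with calcein before compound addition. Read-out is radiolabelled iron uptake or calcein fluorescence change; electrophysiology in Xenopus oocytes also described.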

melting point: 155 to 157 °C | IC50 (DMT1): ≥ 1000 nM
SMILES: N#CN=C(N)CCCc1ccccc1Sc1ccccc1CCCC(N)=NC#N [Example 7.2, 2-(6-(3-(cyanoamidino)propyl)phenyl)thio-1-(3-(cyanoamidino)propyl)benzene]
